Among the data in patent US5962493A, “2-mercaptobenzimidazole derivatives and antihyperlipemic agent or antiarteriosclerotic agent containing the same” (priority 1997, dated 1999) are activity and Cytotoxicity values, retold here.

In series [1] the test system is mouse peritoneal macrophage. The series can be described thus: In vitro tests on inhibition of foaming of macrophage with mouse peritoneal macrophage (cholesteryl ester formation). In kind it is cell-based, mouse (female ICR). To be noted: Table 1, ratio to control, 16 hours at 37° C., read-out: CE (%) (cholesteryl ester-forming rate, ratio to the control). The method, then: (1) In vitro tests on inhibition of foaming of macrophage with mouse peritoneal macrophage:
The necks of 15-week old female ICR mice (Japan SLC) were cut off. After blood-letting, Hanks buffer solution (Nissui Seiyaku Co., Ltd.) was injected into the abdominal cavity of each mouse. The abdomen was massaged and then the buffer solution was rapidly recovered, centrifuged at 1000 rotations for 5 minutes to collect the peritoneal macrophages. The peritoneal macrophases thus collected were then suspended in GIT medium (Wako Pure Chemical Industries, Ltd.), and the suspension was spread on a 24-hole microplate. After the cultivation at 37° C. in 5% CO2 for 2 hours, the medium was replaced with a Dulbecoo Modified Eagle's MEM medium (Nissui Seiyaku Co., Ltd.). After the cultivation at 37° C. in 5% CO2 for additional 16 hours, the following substances were added in the following order:
(1) subject: dissolved in DMSO (Wako Pure Chemical Industries, Ltd.)
PC: phosphatidyl choline (a product of Funakoshi)
PS: phosphatidyl serine (ditto)
DCP: dicetyl phosphate (ditto)
CHOL.: cholesterol (Sigma).
After further cultivation at 37° C. in 5% CO2 for 16 hours, the lipid fraction was extracted with chloroform and methanol. The lipid fraction thus extracted was dissolved in isopropyl alcohol, and the formed cholesteryl ester (CE) was determined by an enzymatic coloring method. The cholesteryl ester-forming rate of each compound was calculated in terms of the ratio thereof to the control. The cytotoxicity was examined by microscopic observation of the shape of the cell.
The pharmacological effects of the compounds given in Table 2 were evaluated in the same manner as that of Example 3.

Series [2] concerns mouse peritoneal macrophage. To be noted: dose 5 μM, microscopic observation.

Like-named read-outs stand apart in the source and are kept apart here.

Regarding `c1ccc2[nH]c(SCCOCCSc3nc4ccccc4[nH]3)nc2c1` [Compound (1)], the activity at 5 µM in series [1] came out at 25%. Also, the Cytotoxicity entry in series [2] (Table 1) is “none”. In the case of `CCCC(=O)n1c(SCCOCCSc2nc3ccccc3n2C(=O)CCC)nc2ccccc21` [Compound (3)], the activity at 5 µM in series [1] was found to be 15%. Further, the Cytotoxicity result in series [2] (Table 1) was “none”. With `CCCCCC(=O)n1c(SCCOCCSc2nc3ccccc3n2C(=O)CCCCC)nc2ccccc21` [Compound (5)], the activity at 5 µM in series [1] turned out to be 20%. The Cytotoxicity result in series [2] (Table 1) is “none”. `CCCCCCCC(=O)n1c(SCCOCCSc2nc3ccccc3n2C(=O)CCCCCCC)nc2ccccc21` [Compound (6)]: the activity at 5 µM in series [1] is 26%. Besides, in series [2] (Table 1), the Cytotoxicity entry is recorded as “none”. The corresponding values for `CCCCCCCCCCCCCC(=O)n1c(SCCOCCSc2nc3ccccc3n2C(=O)CCCCCCCCCCCCC)nc2ccccc21` [Compound (7)] are 74% and “none”. As for `CCCn1c(SCCOCCSc2nc3ccccc3n2CCC)nc2ccccc21` [Compound (8)], in series [1], the activity at 5 µM worked out at 16%. The Cytotoxicity result in series [2] (Table 1) is “none”. The corresponding values for `CCCCCCCCn1c(SCCOCCSc2nc3ccccc3n2CCCCCCCC)nc2ccccc21` [Compound (9)] are 28% and “none”. On the same counts, the results for `c1ccc(Cn2c(SCCOCCSc3nc4ccccc4n3Cc3ccccc3)nc3ccccc32)cc1` [Compound (10)] are 76% and “none”. On the same counts, the results for `Cc1ccc2[nH]c(SCCOCCSc3nc4cc(C)ccc4[nH]3)nc2c1` [Compound (11)] are 38% and “none”.

With `Cc1cc2nc(SCCOCCSc3nc4cc(C)c(C)cc4[nH]3)[nH]c2cc1C` [Compound (13)], the activity at 5 µM in series [1] came out at 45%. In addition, in series [2] (Table 1), the Cytotoxicity result is “none”. With `Clc1ccc2[nH]c(SCCOCCSc3nc4cc(Cl)ccc4[nH]3)nc2c1` [Compound (14)], in series [1], the activity at 5 µM was determined as 18%. Moreover, in series [2] (Table 1), the Cytotoxicity result is given as “none”. For the compound `Clc1cc2nc(SCCOCCSc3nc4cc(Cl)c(Cl)cc4[nH]3)[nH]c2cc1Cl` [Compound (16)], the activity at 5 µM in series [1] was 46%. Moreover, the Cytotoxicity entry in series [2] (Table 1) is “none”.

As to `CCC(=O)n1c(SCCOCCSc2nc3cc(Cl)c(Cl)cc3n2C(=O)CC)nc2cc(Cl)c(Cl)cc21` [Compound (17)], in series [1], the activity at 5 µM amounted to 27%. Further, in series [2] (Table 1), the Cytotoxicity entry is “none”.

`O=[N+]([O-])c1ccc2[nH]c(SCCOCCSc3nc4cc([N+](=O)[O-])ccc4[nH]3)nc2c1` [Compound (18)]: the activity at 5 µM in series [1] came to 10%. In addition, the Cytotoxicity entry in series [2] (Table 1) is reported as “none”. For `c1ccc2[nH]c(SCCOCCOCCSc3nc4ccccc4[nH]3)nc2c1` [Compound (19)], the activity at 5 µM in series [1] was 11%. Also, the Cytotoxicity result in series [2] (Table 1) was “none”.

Turning to `Cc1ccc2[nH]c(SCCCCCSc3nc4cc(C)ccc4[nH]3)nc2c1` [Compound I-1, 1,5-bis(5-methyl-2-benzimidazoylthio)pentane], the Cytotoxicity result in series [2] (Table 2) is on record as “none”. On to `Cc1cc2nc(SCCCCCSc3nc4cc(C)c(C)cc4[nH]3)[nH]c2cc1C` [Compound I-2, 1,5-bis(5,6-dimethyl-2-benzimidazoylthio)pentane], for which the Cytotoxicity result in series [2] (Table 2) is “none”. As for `Clc1ccc2[nH]c(SCCCCCSc3nc4cc(Cl)ccc4[nH]3)nc2c1` [Compound I-3, 1,5-bis(5-chloro-2-benzimidazoylthio)pentane], the Cytotoxicity result in series [2] (Table 2) is “none”. As for `Clc1cc2nc(SCCCCCSc3nc4cc(Cl)c(Cl)cc4[nH]3)[nH]c2cc1Cl` [Compound I-4, 1,5-bis(5,6-dichloro-2-benzimidazoylthio)Pentane], in series [2] (Table 2), the Cytotoxicity result was “none”. In the case of `CC(=O)n1c(SCCCCCSc2nc3ccccc3n2C(C)=O)nc2ccccc21` [II-1, 1,5-bis(1-acetyl-2-benzimidazoylthio)pentane], the Cytotoxicity entry in series [2] (Table 2) was “none”. Consider `CCC(=O)n1c(SCCCCCSc2nc3ccccc3n2C(=O)CC)nc2ccccc21` [II-2, 1,5-bis(1-propionyl-2-benzimidazoylthio)pentane], for which, in series [2] (Table 2), the Cytotoxicity result is listed as “none”.

Turning to `CCCCC(CC)C(=O)n1c(SCCCCCSc2nc3ccccc3n2C(=O)C(CC)CCCC)nc2ccccc21` (centres unmarked) [II-4, 1,5-bis(1-(2-ethylhexanoyl)-2-benzimidazoylthio) pentane], the Cytotoxicity result in series [2] (Table 2) is reported as “none”. Turning to `O=C(c1ccc(Cl)cc1)n1c(SCCCCCSc2nc3ccccc3n2C(=O)c2ccc(Cl)cc2)nc2ccccc21` [II-6, 1,5-bis(1-(4-chlorobenzoyl)-2-benzimidazoylthio) pentane], the Cytotoxicity entry in series [2] (Table 2) is “none”. For `CCC(=O)n1c(SCCCCSc2nc3ccccc3n2C(=O)CC)nc2ccccc21` [II-9, 1,4-bis(1-propionyl-2-benzimidazoylthio)butane], in series [2] (Table 2), the Cytotoxicity entry is recorded as “none”. As for `CCC(=O)n1c(SCCCCCCSc2nc3ccccc3n2C(=O)CC)nc2ccccc21` [II-10, 1,6-bis(1-propionyl-2-benzimidazoylthio)hexane], the Cytotoxicity entry in series [2] (Table 2) is on record as “none”. Still for that read-out and setting: the entry for `CCC(=O)n1c(SCCCCCCCCSc2nc3ccccc3n2C(=O)CC)nc2ccccc21` [II-11, 1,8-bis(1-propionyl-2-benzimidazoyl-thio)octane] is “none”; for `CCC(=O)n1c(SCc2ccc(CSc3nc4ccccc4n3C(=O)CC)cc2)nc2ccccc21` [II-12, 1,4-bis(1-propionyl-2-benzimidazoylthiomethyl)benzene] it is “none”. For the compound `CCC(=O)n1c(SCc2cccc(CSc3nc4ccccc4n3C(=O)CC)c2)nc2ccccc21` [II-13, 1,3-bis(1-propionyl-2-benzimidazoylthiomethyl)benzene], in series [2] (Table 2), the Cytotoxicity entry was “none”. Same read-out and setting: under `CCC(=O)n1c(SCCCCCSc2nc3cc(C)c(C)cc3n2C(=O)CC)nc2cc(C)c(C)cc21` [II-15, 1,5-bis(5,6-dimethyl-1-propionyl-2-benzimidazoylthio) pentane] stands “none”; under `CCC(=O)n1c(SCCCCCSc2nc3ccc(Cl)cc3n2C(=O)CC)nc2cc(Cl)ccc21` [II-20, 1-(5-chloro-1-propionyl-2-benzimidazoylthio)-5-(6-chloro-1-propionyl-2-benzimidazoylthio)pentane], “none”; under `Cn1c(SCCCCCSc2nc3ccccc3n2C)nc2ccccc21` [II-28, 1,5-bis(1-methyl-2-benzimidazoylthio)pentane], “none”.

`CCCn1c(SCCCCCSc2nc3ccccc3n2CCC)nc2ccccc21` [II-29, 1,5-bis(1-propyl-2-benzimidazoylthio)pentane]: in series [2] (Table 2), the Cytotoxicity entry is “none”. `CCCCCCCCn1c(SCCCCCSc2nc3ccccc3n2CCCCCCCC)nc2ccccc21` [II-30, 1,5-bis(l-octyl-2-benzimidazoylthio)pentane]: the Cytotoxicity result in series [2] (Table 2) was “none”.

Take `CCCCC(CC)Cn1c(SCCCCCSc2nc3ccccc3n2CC(CC)CCCC)nc2ccccc21` (centres unmarked) [II-31, 1,5-bis(1-(2-ethylhexyl)-2-benzimidazoylthio)pentane]: the Cytotoxicity entry in series [2] (Table 2) is “none”.

As for `c1ccc(Cn2c(SCCCCCSc3nc4ccccc4n3Cc3ccccc3)nc3ccccc32)cc1` [II-32, 1.5-bis(1-benzyl-2-benzimidazoylthio)pentane], the Cytotoxicity result in series [2] (Table 2) is “none”. `Cn1c(SCCCCCSc2nc3cc(Cl)c(Cl)cc3n2C)nc2cc(Cl)c(Cl)cc21` [II-33, 1,5-bis(5,6-dichloro-1-methyl-2-benzimidazoylthio) pentane]: the Cytotoxicity entry in series [2] (Table 2) was “none”. Take `CCCn1c(SCCCCCSc2nc3cc(Cl)c(Cl)cc3n2CCC)nc2cc(Cl)c(Cl)cc21` [II-34, 1,5-bis(5,6-dichloro-1-propyl-2-benzimidazoylthio) pentane]: the Cytotoxicity entry in series [2] (Table 2) is reported as “none”. Turning to `Cn1c(SCCCCCCCCSc2nc3ccccc3n2C)nc2ccccc21` [II-35, 1,8-bis(1-methyl-2-benzimidazoylthio)octane], the Cytotoxicity result in series [2] (Table 2) is given as “none”.

For the compound `c1ccc2[nH]c(SCCCCSc3nc4ccccc4[nH]3)nc2c1` [IV-3, 1,4-bis(2-benzimidazoylthio)butane], the Cytotoxicity result in series [2] (Table 2) was “none”.

Turning to `COc1ccc2[nH]c(SCCCCCSc3nc4cc(OC)ccc4[nH]3)nc2c1` [IV-4, 1,5-bis(5-methoxyl-2-benzimidazoylthio)pentane], in series [2] (Table 2), the Cytotoxicity entry is given as “none”. Take `O=[N+]([O-])c1ccc2[nH]c(SCCCCCSc3nc4cc([N+](=O)[O-])ccc4[nH]3)nc2c1` [IV-5, 1,5-bis(5-nitro-2-benzimidazoylthio)pentane]: in series [2] (Table 2), the Cytotoxicity entry was “none”. Regarding `CCC(=O)Nc1ccc2[nH]c(SCCCCCSc3nc4cc(NC(=O)CC)ccc4[nH]3)nc2c1` [IV-8, 1,5-bis(5-propanamido-2-benzimidazoylthio)pentane], the Cytotoxicity entry in series [2] (Table 2) is “none”. As for `c1ccc2[nH]c(SCc3ccc(CSc4nc5ccccc5[nH]4)cc3)nc2c1` [IV-13, 1,4-bis(2-benzimidazoylthiomethyl)benzene], the Cytotoxicity result in series [2] (Table 2) is given as “none”. Same read-out and setting: under `c1cc(CSc2nc3ccccc3[nH]2)cc(CSc2nc3ccccc3[nH]2)c1` [IV-14, 1,3-bis(2-benzimidazoylthiomethyl)benzene] stands “none”.
